Results taken from PubChem BioAssay (NCI).
Values joined by “and” are separate entries in the source; they are usually repeats but may differ in a detail not shown here. Equal entries are not always repeated.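 In this assay, cells in 96-well plates receive the compound at five concentrations for 48 hours. Endpoints are linearly interpolated between the surrounding concentrations. GI50 is the concentration that inhibits growth by half. TGI: total growth inhibition.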

Columns and labels:
Experiment in all cases: inhibition of tumour cell growth, NCI panel, 48 h
CAKI-1 renal = system: CAKI-1 renal
HCC-2998 colon = system: HCC-2998 colon
KM12 colon = system: KM12 colon
M14 melanoma = system: M14 melanoma
NCI-H226 lung = system: NCI-H226 lung
NCI-H23 lung = system: NCI-H23 lung
NCI/ADR-RES ovarian = system: NCI/ADR-RES ovarian
OVCAR-4 ovarian = system: OVCAR-4 ovarian
RPMI-8226 leukemia = system: RPMI-8226 leukemia
SF-539 CNS = system: SF-539 CNS
SK-OV-3 ovarian = system: SK-OV-3 ovarian
SNB-19 CNS = system: SNB-19 CNS
UACC-257 melanoma = system: UACC-257 melanoma

Structure (SMILES)	TGI (CAKI-1 renal)	TGI (HCC-2998 colon)	TGI (KM12 colon)	TGI (M14 melanoma)	TGI (NCI-H226 lung)	TGI (NCI-H23 lung)	TGI (NCI/ADR-RES ovarian)	TGI (OVCAR-4 ovarian)	TGI (RPMI-8226 leukemia)	TGI (SF-539 CNS)	TGI (SK-OV-3 ovarian)	TGI (SNB-19 CNS)	TGI (UACC-257 melanoma)	GI50 (CAKI-1 renal)	GI50 (RPMI-8226 leukemia)
Cc1cc2/c(=C\c3ccc(N(C)C)cc3)c3ccccc3n2[n+]1C	22.3 µM	1 µM	5.54 µM	3.73 µM	5.87 µM	3.23 µM	> 100 µM	10.3 µM	0.738 µM	5.61 µM	14.3 µM	4.52 µM	1.07 µM		
COC(=O)C1Cc2cc3c(cc2C1=O)CCCC3 (stereo unspecified)	> 100 µM	> 100 µM	> 100 µM	> 100 µM	87 µM	> 100 µM	> 100 µM	> 100 µM	> 100 µM	> 100 µM	> 100 µM	> 100 µM	> 100 µM		
O=C(O)CCS/C(=C\C(SCCC(=O)O)c1ccc(Cl)cc1)c1ccc(Cl)cc1 (stereo unspecified)	> 100 µM	54.7 µM	65.4 µM	> 100 µM	> 100 µM	> 100 µM	> 100 µM	> 100 µM	95.6 µM	> 100 µM	> 100 µM	> 100 µM	> 100 µM		
Nc1[nH]nc(Nc2ccc(Cl)cc2)c1P(=O)(c1ccccc1)c1ccccc1	> 100 µM	60.2 µM	37.5 µM	54.6 µM	50.2 µM	> 100 µM	52.3 µM	80.8 µM	> 100 µM	42.6 µM	> 100 µM	92.4 µM	> 100 µM		
NC(=O)N/N=C(/CC1C(=O)Oc2ccccc21)c1ccccc1O (stereo unspecified)	> 100 µM	91.1 µM	> 100 µM	> 100 µM	82.5 µM	> 100 µM	98.2 µM	> 100 µM	34.9 µM	91.1 µM	> 100 µM	> 100 µM	> 100 µM		
C=C(C(=O)O)[C@@H]1C[C@@H]2O[C@H]1[C@@H](O)[C@@H](C)CCCC(C)=CCC[C@@]2(C)O	> 100 µM	> 100 µM	> 100 µM	> 100 µM	> 100 µM	> 100 µM	> 100 µM	> 100 µM	> 100 µM	> 100 µM	> 100 µM	> 100 µM	> 100 µM	37.2 µM and > 100 µM	25 µM and 55.9 µM
Nc1nc(Cl)c(N)c(NCC2(CO)CC2)n1	> 100 µM	> 100 µM	> 100 µM	> 100 µM	> 100 µM	> 100 µM	> 100 µM	> 100 µM	> 100 µM	> 100 µM	> 100 µM	> 100 µM	> 100 µM		
COc1cc(C(C)O)c(S(=O)(=O)CC(C)O)nn1 (stereo unspecified)	> 100 µM	> 100 µM	> 100 µM	> 100 µM	> 100 µM	> 100 µM	> 100 µM	> 100 µM	> 100 µM	> 100 µM	> 100 µM	> 100 µM	> 100 µM		
C=CCC1CC(n2cc(C)c(=O)[nH]c2=O)OC1CO[Si](C)(C)C(C)(C)C (stereo unspecified)	31.8 µM	35.5 µM	35 µM	33.5 µM	28.4 µM	27.1 µM	31.5 µM	28.5 µM	47.5 µM	28.3 µM	29.2 µM	30.2 µM	33.8 µM		
CC[C@@]1(O)C(=O)OCc2c1cc1n(c2=O)Cc2c-1nc1ccccc1c2/C=N\NC(=O)C1CCCN1 (stereo partly specified)	> 23.5 µM	> 53.7 µM	> 44.6 µM	5.81 µM	2.8 µM	0.965 µM	20.5 µM	> 100 µM	> 59.7 µM	0.318 µM	> 100 µM	2.5 µM	> 95.4 µM		
CC(=N\N)/C(C)=N/N=C(C)/C(C)=N/N	> 100 µM	> 100 µM	> 100 µM	> 100 µM	> 100 µM	> 100 µM	> 100 µM	> 100 µM	> 100 µM	> 100 µM	> 100 µM	> 100 µM	> 100 µM		
Cc1ccc2c(c1)C(=O)c1nc(C)ccc1C2=O	76.9 µM	87.8 µM	> 100 µM	> 100 µM	> 100 µM	56.7 µM	59.1 µM	89 µM	74.1 µM	> 100 µM	> 100 µM	63.7 µM	45.2 µM		
O=C1/C(=C\c2cccc(Oc3ccccc3)c2)SC(c2ccccc2)N1c1ccccc1 (stereo unspecified)	> 100 µM	> 100 µM	> 100 µM	> 100 µM	> 100 µM	> 100 µM	> 100 µM	> 100 µM	50.3 µM	93.6 µM	> 100 µM	> 100 µM	> 100 µM		
